Test results published in PubChem BioAssay (NCI).
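Grown in 96-well plates, cells were treated for 48 hours with each compound at five concentrations. Insufficient inhibition: endpoint recorded as highest concentration tested. At the TGI there is no net growth.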

Experiments:
Assay in all cases: NCI tumour cell line growth inhibition, 48 h
LXFL 529 NSCLC = test system: LXFL 529 NSCLC
CCRF-CEM leukemia = test system: CCRF-CEM leukemia
OVCAR-3 ovarian = test system: OVCAR-3 ovarian
M14 melanoma = test system: M14 melanoma
OVCAR-4 ovarian = test system: OVCAR-4 ovarian
HOP-92 NSCLC = test system: HOP-92 NSCLC
TK-10 renal = test system: TK-10 renal
DMS 114 small cell lung = test system: DMS 114 small cell lung
XF 498 CNS = test system: XF 498 CNS
HT29 colon = test system: HT29 colon
SK-OV-3 ovarian = test system: SK-OV-3 ovarian
RPMI-8226 leukemia = test system: RPMI-8226 leukemia
HCT-15 colon = test system: HCT-15 colon
UO-31 renal = test system: UO-31 renal
MOLT-4 leukemia = test system: MOLT-4 leukemia
NCI-H226 lung = test system: NCI-H226 lung
NCI-H522 lung = test system: NCI-H522 lung
U251 CNS = test system: U251 CNS
A549 NSCLC = test system: A549 NSCLC
SN12C renal = test system: SN12C renal
UACC-257 melanoma = test system: UACC-257 melanoma
SW-620 colon = test system: SW-620 colon
CAKI-1 renal = test system: CAKI-1 renal
IGROV1 ovarian = test system: IGROV1 ovarian
RXF 393 renal = test system: RXF 393 renal
K-562 leukemia = test system: K-562 leukemia
OVCAR-5 ovarian = test system: OVCAR-5 ovarian
HOP-62 NSCLC = test system: HOP-62 NSCLC
SF-295 CNS = test system: SF-295 CNS
SNB-78 CNS = test system: SNB-78 CNS
ACHN renal = test system: ACHN renal
DMS 273 small cell lung = test system: DMS 273 small cell lung
SR leukemia = test system: SR leukemia
SK-MEL-5 melanoma = test system: SK-MEL-5 melanoma
NCI-H23 lung = test system: NCI-H23 lung
HOP-18 NSCLC = test system: HOP-18 NSCLC
LOX IMVI melanoma = test system: LOX IMVI melanoma
M19-MEL melanoma = test system: M19-MEL melanoma
HCC-2998 colon = test system: HCC-2998 colon
COLO 205 colon = test system: COLO 205 colon
SK-MEL-28 melanoma = test system: SK-MEL-28 melanoma
SNB-75 CNS = test system: SNB-75 CNS
OVCAR-8 ovarian = test system: OVCAR-8 ovarian
DLD-1 colon = test system: DLD-1 colon
A498 renal = test system: A498 renal
KM20L2 colon = test system: KM20L2 colon
UACC-62 melanoma = test system: UACC-62 melanoma
EKVX NSCLC = test system: EKVX NSCLC
SF-268 CNS = test system: SF-268 CNS
SF-539 CNS = test system: SF-539 CNS
786-0 renal = test system: 786-0 renal
MALME-3M melanoma = test system: MALME-3M melanoma
SNB-19 CNS = test system: SNB-19 CNS
KM12 colon = test system: KM12 colon
NCI-H460 lung = test system: NCI-H460 lung
HL-60(TB) leukemia = test system: HL-60(TB) leukemia
HCT-116 colon = test system: HCT-116 colon
SK-MEL-2 melanoma = test system: SK-MEL-2 melanoma
RXF-631 renal = test system: RXF-631 renal

O=C(N[C@@H]1C=CCC[C@@H]1c1ccccc1)OCc1ccccc1
TGI (LXFL 529 NSCLC): 49.8 µM
TGI (CCRF-CEM leukemia): 43.9 µM
TGI (OVCAR-3 ovarian): 31.2 µM
TGI (M14 melanoma): 34.5 µM
TGI (OVCAR-4 ovarian): 42.4 µM
TGI (HOP-92 NSCLC): 32.1 µM
TGI (TK-10 renal): 24.6 µM
TGI (DMS 114 small cell lung): 45.1 µM
TGI (XF 498 CNS): 35.9 µM
TGI (HT29 colon): 53.1 µM
TGI (SK-OV-3 ovarian): > 100 µM
TGI (RPMI-8226 leukemia): 57.2 µM
TGI (HCT-15 colon): 38.3 µM
TGI (UO-31 renal): 36.7 µM
TGI (MOLT-4 leukemia): 34.6 µM
TGI (NCI-H226 lung): 36.4 µM
TGI (NCI-H522 lung): 30.9 µM
TGI (U251 CNS): 32.9 µM
TGI (A549 NSCLC): > 69.6 µM
TGI (SN12C renal): 31.1 µM
TGI (UACC-257 melanoma): 35.2 µM
TGI (SW-620 colon): 50.7 µM
TGI (CAKI-1 renal): 45.1 µM
TGI (IGROV1 ovarian): 68.9 µM
TGI (RXF 393 renal): 35.9 µM
TGI (K-562 leukemia): > 100 µM
TGI (OVCAR-5 ovarian): 54.4 µM
TGI (HOP-62 NSCLC): 34.6 µM
TGI (SF-295 CNS): 45.6 µM
TGI (SNB-78 CNS): 93 µM
TGI (ACHN renal): 64.7 µM
TGI (DMS 273 small cell lung): 32.4 µM
TGI (SR leukemia): 41.7 µM
TGI (SK-MEL-5 melanoma): 33.3 µM
TGI (NCI-H23 lung): 51.3 µM
TGI (HOP-18 NSCLC): 46.9 µM
TGI (LOX IMVI melanoma): 28.9 µM
TGI (M19-MEL melanoma): 45.1 µM
TGI (HCC-2998 colon): 49.3 µM
TGI (COLO 205 colon): 33.1 µM
TGI (SK-MEL-28 melanoma): 46.5 µM
TGI (SNB-75 CNS): 60.6 µM
TGI (OVCAR-8 ovarian): 42.6 µM
TGI (DLD-1 colon): > 85.6 µM
TGI (A498 renal): 39 µM
TGI (KM20L2 colon): 40.6 µM
TGI (UACC-62 melanoma): 28 µM
TGI (EKVX NSCLC): 72.5 µM
TGI (SF-268 CNS): 59 µM
TGI (SF-539 CNS): 33.5 µM
TGI (786-0 renal): 39.7 µM
TGI (MALME-3M melanoma): 37 µM
TGI (SNB-19 CNS): 99.6 µM
TGI (KM12 colon): 33.9 µM
TGI (NCI-H460 lung): 34.7 µM
TGI (HL-60(TB) leukemia): 34.6 µM
TGI (HCT-116 colon): 34.6 µM
TGI (SK-MEL-2 melanoma): 32.4 µM

CCOc1ccccc1NC(=O)C(=O)C(C(=O)c1ccc2ccccc2c1)C1OC(=O)c2ccccc21 (stereo not drawn)
TGI (LXFL 529 NSCLC): 19.4 µM
TGI (CCRF-CEM leukemia): 69.1 µM
TGI (OVCAR-3 ovarian): 52 µM
TGI (M14 melanoma): 36.4 µM
TGI (OVCAR-4 ovarian): 24.6 µM
TGI (HOP-92 NSCLC): 38.1 µM
TGI (TK-10 renal): 54.8 µM
TGI (DMS 114 small cell lung): 33.6 µM
TGI (HT29 colon): 76.4 µM
TGI (SK-OV-3 ovarian): 52.8 µM
TGI (RPMI-8226 leukemia): 40 µM
TGI (HCT-15 colon): 33.6 µM
TGI (UO-31 renal): 29.1 µM
TGI (MOLT-4 leukemia): 30.3 µM
TGI (NCI-H226 lung): 7.06 µM
TGI (NCI-H522 lung): 27.4 µM
TGI (U251 CNS): 22.5 µM
TGI (A549 NSCLC): 98.2 µM
TGI (SN12C renal): 37.4 µM
TGI (UACC-257 melanoma): 50.9 µM
TGI (SW-620 colon): 33.8 µM
TGI (CAKI-1 renal): 36.8 µM
TGI (IGROV1 ovarian): 35.2 µM
TGI (RXF 393 renal): 9.05 µM
TGI (K-562 leukemia): > 100 µM
TGI (OVCAR-5 ovarian): 46.1 µM
TGI (HOP-62 NSCLC): 31.2 µM
TGI (SNB-78 CNS): 75.8 µM
TGI (ACHN renal): > 100 µM
TGI (DMS 273 small cell lung): 31.7 µM
TGI (SK-MEL-5 melanoma): 24.5 µM
TGI (NCI-H23 lung): 26.2 µM
TGI (HOP-18 NSCLC): 36.3 µM
TGI (LOX IMVI melanoma): 29.1 µM
TGI (HCC-2998 colon): 22.9 µM
TGI (COLO 205 colon): 29.7 µM
TGI (SK-MEL-28 melanoma): 35.5 µM
TGI (SNB-75 CNS): 31 µM
TGI (OVCAR-8 ovarian): 38.8 µM
TGI (DLD-1 colon): 33.4 µM
TGI (A498 renal): 30.5 µM
TGI (KM20L2 colon): 77 µM
TGI (UACC-62 melanoma): 21.3 µM
TGI (EKVX NSCLC): 77.3 µM
TGI (SF-268 CNS): 53.1 µM
TGI (SF-539 CNS): 24.8 µM
TGI (786-0 renal): 21.1 µM
TGI (MALME-3M melanoma): 30.2 µM
TGI (SNB-19 CNS): 22 µM
TGI (KM12 colon): 59.5 µM
TGI (NCI-H460 lung): 52.2 µM
TGI (HL-60(TB) leukemia): 59.3 µM
TGI (HCT-116 colon): 22.3 µM
TGI (SK-MEL-2 melanoma): 29.4 µM
TGI (RXF-631 renal): 22.4 µM
